From US9498446B2, “Pharmaceutical compositions resistant to abuse” (Egalet Ltd., priority 2009, dated 2016)
Values joined by “and” are separate entries in the source; they are usually repeats but may differ in a detail not shown here. Identical values can stand only once.

Experiment: Dissolution test of naltrexone from intact and ground tablets
Assay type: physicochemical
Protocol: Polylactid acid was injection moulded in a Haake Minijet (Haake MiniJet II, Thermo Electron, Karlsruhe, Germany) as described in Methods. An inner core filled with approximately 25 mg Naltrexone hydrochloride was prepared and closed in both ends with the above mentioned shell composition. The inner core has a size of 8 mm×4.26 mm×2.49 mm. The inner core was placed in the cavity of a larger shell 2 (H: 20 mm; L: 6 mm; B: 6 mm) with the same shell composition and the large shell was filled with placebo matrix composition as described in Methods.
Dissolution tests of naltrexone were performed in accordance to USP 30, NF 25, (711). Apparatus 2 (paddle method). The dissolution medium consisted of phosphate buffer solution pH 6.8. The volume of the dissolution medium was 500 ml and the rotation speed of the paddles was 50 rpm throughout the dissolution rum. The temperature was 37° C. Samples were withdrawn at suitable time intervals and analysed for content of active drug substance by means of HPLC UV detection. Intact tablets n=2 and tablets milled in a Coffee Grinder, Krups GVX242 (n=2) were analyse in dissolution.
The amount of naltrexone was determined by a modified USP method. The technique was reverse phase chromatography, using a Supelco Ascentis Express C18 2.7 μm 4.6*100 mm column. The mobile phase consisted of 1.08 g sodium 1-octanesulphonate, 23.8 g sodium acetate, 1 ml triethylamine, 450 ml methanol and approximately 550 ml water. The HPLC settings were as follows: Isocratic, column temperature 30° C. flow 0.6 ml/min, detection HPLC-UV at 280 nm, injection volume 20 μl with a 6 minutes run time.

O=C1CC[C@@]2(O)[C@H]3Cc4ccc(O)c5c4[C@@]2(CCN3CC2CC2)[C@H]1O5 [Naltrexone]
Amount of naltrexone found in dissolution medium (Ground tablet (Coffee Grinder, Krups GVX242), 0.2 hours, phosphate buffer pH 6.8, 100% = 25 mg): 34.1% and 31.5% | Amount of naltrexone found in dissolution medium (Ground tablet, 0.5 hours): 36.3% and 34.2% | Amount of naltrexone found in dissolution medium (Ground tablet, 0.8 hours): 36.6% and 34.7% | Amount of naltrexone found in dissolution medium (Ground tablet, 1.5 hours): 37.4% and 34.9% | Amount of naltrexone found in dissolution medium (Ground tablet, 20 hours): 39.0% and 37.1% | Amount of naltrexone found in dissolution medium (Ground tablet, 30 hours): 34.9% and 35.9%
